Test results as given in ChEMBL document CHEMBL4630907 (2021).
The source made the active and inactive calls. The calls are words filed in the database; no cut-off is given here.

Columns and labels:
[1] = molecular target: Muscarinic acetylcholine receptor M5 (Homo sapiens) (UniProt P08912); settings: Compound concentration 10.0 uM
[2] = molecular target: T1, Bromodomain-containing protein 3 (Homo sapiens, UniProt Q15059); experiment: BRD3 Bromoscan (DiscoverX)
Target sequence in this assay (Q15059 whole entry): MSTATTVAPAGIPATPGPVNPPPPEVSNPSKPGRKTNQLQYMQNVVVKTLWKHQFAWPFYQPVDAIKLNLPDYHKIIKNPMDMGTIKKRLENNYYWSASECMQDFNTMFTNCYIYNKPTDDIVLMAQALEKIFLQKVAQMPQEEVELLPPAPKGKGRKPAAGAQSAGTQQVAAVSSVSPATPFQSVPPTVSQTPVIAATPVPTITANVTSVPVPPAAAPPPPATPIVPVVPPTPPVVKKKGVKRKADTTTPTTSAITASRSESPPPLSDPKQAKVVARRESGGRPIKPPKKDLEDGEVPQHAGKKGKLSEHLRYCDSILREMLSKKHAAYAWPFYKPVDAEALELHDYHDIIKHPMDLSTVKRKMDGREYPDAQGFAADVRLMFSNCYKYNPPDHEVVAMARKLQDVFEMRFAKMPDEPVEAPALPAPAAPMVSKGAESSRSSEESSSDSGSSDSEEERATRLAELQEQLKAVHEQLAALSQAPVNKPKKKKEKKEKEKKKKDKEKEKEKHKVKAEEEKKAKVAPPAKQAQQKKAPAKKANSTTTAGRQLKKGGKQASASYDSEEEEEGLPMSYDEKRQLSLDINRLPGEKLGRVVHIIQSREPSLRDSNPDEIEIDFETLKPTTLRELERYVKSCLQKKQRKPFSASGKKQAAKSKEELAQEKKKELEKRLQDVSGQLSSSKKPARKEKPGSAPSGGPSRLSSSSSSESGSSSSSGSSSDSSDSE

Histamine H1 receptor = Histamine H1 receptor (Homo sapiens, UniProt P35367); settings: Compound concentration 10.0 uM
[3] = molecular target: Alpha-2C adrenergic receptor (Homo sapiens) (UniProt P18825); settings: Compound concentration 10.0 uM
[4] = molecular target: T2, Bromodomain-containing protein 2 (Homo sapiens, UniProt P25440); experiment: BRD2(1) DiscoverX BROMOscan
Target sequence in this assay (P25440 whole entry): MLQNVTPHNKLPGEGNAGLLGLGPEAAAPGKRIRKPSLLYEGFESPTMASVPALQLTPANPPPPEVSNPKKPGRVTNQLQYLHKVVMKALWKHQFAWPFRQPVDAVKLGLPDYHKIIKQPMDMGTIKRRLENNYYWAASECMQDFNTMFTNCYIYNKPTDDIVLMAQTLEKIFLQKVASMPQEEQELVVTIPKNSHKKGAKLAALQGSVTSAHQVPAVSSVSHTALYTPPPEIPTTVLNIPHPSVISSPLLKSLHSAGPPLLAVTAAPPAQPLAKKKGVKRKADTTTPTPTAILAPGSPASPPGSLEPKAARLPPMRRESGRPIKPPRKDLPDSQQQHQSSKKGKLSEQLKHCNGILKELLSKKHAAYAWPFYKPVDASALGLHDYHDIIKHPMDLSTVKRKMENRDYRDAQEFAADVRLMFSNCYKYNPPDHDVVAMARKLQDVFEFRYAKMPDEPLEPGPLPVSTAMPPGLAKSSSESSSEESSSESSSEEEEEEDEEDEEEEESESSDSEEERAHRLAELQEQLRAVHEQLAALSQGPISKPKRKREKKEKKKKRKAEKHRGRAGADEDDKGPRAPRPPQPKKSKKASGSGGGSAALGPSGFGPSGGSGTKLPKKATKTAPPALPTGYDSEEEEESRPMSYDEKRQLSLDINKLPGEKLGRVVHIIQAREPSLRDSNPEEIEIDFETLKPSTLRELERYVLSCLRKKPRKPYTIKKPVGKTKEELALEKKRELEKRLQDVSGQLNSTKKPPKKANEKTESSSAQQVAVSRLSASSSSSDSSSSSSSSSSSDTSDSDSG

[5] = molecular target: T1, Bromodomain-containing protein 3; experiment: BRD3(2) DiscoverX BROMOscan
Target sequence in this assay (Q15059 whole entry): as the sequence (Q15059 whole entry) above

[6] = molecular target: Transcription initiation factor TFIID subunit 1-like (Homo sapiens, UniProt Q8IZX4); experiment: TAF1L(2) DiscoverX BROMOscan
[7] = molecular target: Chromatin remodeling regulator CECR2 (Homo sapiens, UniProt Q9BXF3); experiment: CECR2 DiscoverX BROMOscan
[8] = molecular target: Muscarinic acetylcholine receptor M2 (Homo sapiens) (UniProt P08172); settings: Compound concentration 10.0 uM
[9] = molecular target: 5-hydroxytryptamine receptor 1A (Homo sapiens) (UniProt P08908); settings: Compound concentration 10.0 uM
[10] = molecular target: Beta-1 adrenergic receptor (Homo sapiens) (UniProt P08588); settings: Compound concentration 10.0 uM
[11] = molecular target: ATPase family AAA domain-containing protein 2B (Homo sapiens, UniProt Q9ULI0); experiment: ATAD2B DiscoverX BROMOscan
[12] = molecular target: Voltage-gated potassium channel, IKs; KCNQ1(Kv7.1)/KCNE1(MinK) (Homo sapiens, UniProt P15382+P51787); experiment: (§1) Cross screening panel; assay type: protein-complex assay
[13] = molecular target: Histamine H3 receptor (Homo sapiens) (UniProt Q9Y5N1); settings: Compound concentration 10.0 uM
[14] = molecular target: Muscarinic acetylcholine receptor M4 (Homo sapiens) (UniProt P08173); settings: Compound concentration 10.0 uM
[15] = molecular target: T2, Bromodomain-containing protein 2; experiment: BET mutant TR-FRET assay (BRD2 BD1)
[16] = molecular target: T3, GABA-A receptor; anion channel (Rattus norvegicus) (UniProt O09028+P15431+P18506+P18508+P19969+P20236+P23574+P23576+P28471+P28473+P30191+P62813+P63079+P63138+Q91ZM7+Q9ES14); settings: Compound concentration 10.0 uM
[17] = molecular target: T2, Bromodomain-containing protein 2; experiment: TR-FRET assay (BRD2 BD2)
Target sequence in this assay (P25440 whole entry): as the sequence (P25440 whole entry) above

[18] = molecular target: T3, GABA-A receptor; anion channel (Rattus norvegicus); settings: Compound concentration 10.0 uM; remark: listed apart in the source
[19] = molecular target: Alpha-1A adrenergic receptor (Homo sapiens) (UniProt P35348); settings: Compound concentration 10.0 uM
[20] = molecular target: 5-hydroxytryptamine receptor 2A (Homo sapiens, UniProt P28223); settings: Compound concentration 10.0 uM
[21] = molecular target: Bromodomain-containing protein 9 (Homo sapiens, UniProt Q9H8M2); experiment: BRD9 DiscoverX BROMOscan
[22] = molecular target: Sodium-dependent noradrenaline transporter (Homo sapiens, UniProt P23975); settings: Compound concentration 10.0 uM
[23] = molecular target: Sodium-dependent serotonin transporter (Homo sapiens, UniProt P31645); settings: Compound concentration 10.0 uM
Sodium-dependent serotonin transporter, sequence (P31645 whole entry, looked up): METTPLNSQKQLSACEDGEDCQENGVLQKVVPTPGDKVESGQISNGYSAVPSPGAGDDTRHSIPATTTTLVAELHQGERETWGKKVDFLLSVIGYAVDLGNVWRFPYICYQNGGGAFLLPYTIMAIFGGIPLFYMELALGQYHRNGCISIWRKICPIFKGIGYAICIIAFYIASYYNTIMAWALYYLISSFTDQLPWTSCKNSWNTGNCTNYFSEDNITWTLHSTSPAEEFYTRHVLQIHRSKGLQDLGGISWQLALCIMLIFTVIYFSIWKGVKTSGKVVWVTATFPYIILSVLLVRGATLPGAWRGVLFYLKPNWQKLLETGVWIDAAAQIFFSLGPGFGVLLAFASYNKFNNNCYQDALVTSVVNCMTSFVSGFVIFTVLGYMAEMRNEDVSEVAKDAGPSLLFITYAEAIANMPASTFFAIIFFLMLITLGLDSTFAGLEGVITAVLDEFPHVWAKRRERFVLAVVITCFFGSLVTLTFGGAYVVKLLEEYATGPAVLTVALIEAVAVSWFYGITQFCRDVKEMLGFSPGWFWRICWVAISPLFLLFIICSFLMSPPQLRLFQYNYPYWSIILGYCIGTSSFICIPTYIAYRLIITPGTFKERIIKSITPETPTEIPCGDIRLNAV

[24] = molecular target: T1, Bromodomain-containing protein 3; experiment: BRD3(1) DiscoverX BROMOscan
Target sequence in this assay (Q15059 whole entry): as the sequence (Q15059 whole entry) above

[25] = molecular target: Muscarinic acetylcholine receptor M1 (Homo sapiens) (UniProt P11229); settings: Compound concentration 10.0 uM
[26] = molecular target: Alpha-1B adrenergic receptor (Homo sapiens) (UniProt P35368); settings: Compound concentration 10.0 uM
[27] = molecular target: T1, Bromodomain-containing protein 3; experiment: BET mutant TR-FRETassay (BRD3 BD1)
[28] = as §1
[29] = molecular target: Bromodomain and WD repeat-containing protein 1 (Homo sapiens, UniProt Q9NSI6); experiment: WDR9(2) DiscoverX BROMOscan
[30] = molecular target: D(1B) dopamine receptor (Homo sapiens) (UniProt P21918); settings: Compound concentration 10.0 uM
[31] = molecular target: T2, Bromodomain-containing protein 2; experiment: TR-FRET assay (BRD2 BD1)
Target sequence in this assay (P25440 whole entry): as the sequence (P25440 whole entry) above

Cytochrome P450 3A4 = Cytochrome P450 3A4 (Homo sapiens, UniProt P08684); experiment: as §1
D(2) dopamine receptor = D(2) dopamine receptor (Homo sapiens, UniProt P14416); settings: Compound concentration 10.0 uM
Mu-type opioid receptor = Mu-type opioid receptor (Homo sapiens, UniProt P35372); settings: Compound concentration 10.0 uM
D(1A) dopamine receptor = D(1A) dopamine receptor (Homo sapiens, UniProt P21728); settings: Compound concentration 10.0 uM
D(1A) dopamine receptor, sequence (P21728 whole entry): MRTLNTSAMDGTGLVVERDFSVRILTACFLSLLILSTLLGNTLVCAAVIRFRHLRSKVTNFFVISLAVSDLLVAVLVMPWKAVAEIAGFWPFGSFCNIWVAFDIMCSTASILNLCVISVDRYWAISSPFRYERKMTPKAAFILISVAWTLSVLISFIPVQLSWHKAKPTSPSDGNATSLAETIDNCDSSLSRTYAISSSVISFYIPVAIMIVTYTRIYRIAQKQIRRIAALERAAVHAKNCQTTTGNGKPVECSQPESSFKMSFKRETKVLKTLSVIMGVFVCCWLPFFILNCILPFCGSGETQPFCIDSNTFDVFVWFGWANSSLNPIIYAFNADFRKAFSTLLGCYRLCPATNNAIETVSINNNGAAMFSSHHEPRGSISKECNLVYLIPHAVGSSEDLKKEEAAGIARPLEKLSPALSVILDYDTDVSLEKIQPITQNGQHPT

Rattus norvegicus = organism: Rattus norvegicus; settings: Compound concentration 10.0 uM
D(3) dopamine receptor [32] = molecular target: T4, D(3) dopamine receptor (Homo sapiens, UniProt P35462); settings: Compound concentration 10.0 uM
T4 sequence (P35462 whole entry): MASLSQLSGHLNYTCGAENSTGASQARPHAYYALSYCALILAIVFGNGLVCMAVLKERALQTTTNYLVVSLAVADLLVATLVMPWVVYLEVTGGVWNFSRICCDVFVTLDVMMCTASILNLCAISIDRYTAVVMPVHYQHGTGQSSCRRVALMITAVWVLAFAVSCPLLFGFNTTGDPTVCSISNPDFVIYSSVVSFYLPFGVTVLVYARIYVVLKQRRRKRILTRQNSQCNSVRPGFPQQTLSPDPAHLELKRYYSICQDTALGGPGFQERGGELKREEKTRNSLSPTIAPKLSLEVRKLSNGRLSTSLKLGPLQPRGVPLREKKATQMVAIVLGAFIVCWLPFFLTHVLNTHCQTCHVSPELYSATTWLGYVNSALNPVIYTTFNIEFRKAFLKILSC

[33] = molecular target: SWI/SNF-related matrix-associated actin-dependent regulator of chromatin subfamily A member 2 (Homo sapiens, UniProt P51531); experiment: SMARCA2 DiscoverX BROMOscan
D(3) dopamine receptor [34] = molecular target: T4, D(3) dopamine receptor; experiment: GPCRScan assay: inhibition of D3; design: radioligand conc. used [nm] 0.5 – 1.8, parental cells HEKT
Protein polybromo-1 = Protein polybromo-1 (Homo sapiens, UniProt Q86U86); experiment: PBRM1(2) DiscoverX BROMOscan
[35] = molecular target: Alpha-1D adrenergic receptor (Homo sapiens) (UniProt P25100); settings: Compound concentration 10.0 uM
Alpha-1D adrenergic receptor (Homo sapiens), sequence (P25100 whole entry): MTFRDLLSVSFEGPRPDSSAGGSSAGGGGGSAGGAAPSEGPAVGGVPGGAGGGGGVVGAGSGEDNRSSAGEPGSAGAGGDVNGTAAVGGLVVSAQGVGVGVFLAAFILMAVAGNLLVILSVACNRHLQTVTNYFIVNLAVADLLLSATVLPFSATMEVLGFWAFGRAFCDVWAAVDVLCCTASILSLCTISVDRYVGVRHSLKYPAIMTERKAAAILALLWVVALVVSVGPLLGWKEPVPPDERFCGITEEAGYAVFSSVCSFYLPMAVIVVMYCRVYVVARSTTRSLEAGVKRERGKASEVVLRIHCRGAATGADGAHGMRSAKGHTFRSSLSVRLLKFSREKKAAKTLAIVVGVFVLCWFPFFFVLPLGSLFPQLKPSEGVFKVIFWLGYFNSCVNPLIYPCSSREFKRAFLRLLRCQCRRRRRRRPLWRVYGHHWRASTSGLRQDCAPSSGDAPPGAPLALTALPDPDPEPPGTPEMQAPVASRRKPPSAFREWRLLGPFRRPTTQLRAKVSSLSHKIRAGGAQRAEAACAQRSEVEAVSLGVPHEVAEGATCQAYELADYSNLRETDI

[36] = molecular target: Muscarinic acetylcholine receptor M3 (Homo sapiens) (UniProt P20309); settings: Compound concentration 10.0 uM
Muscarinic acetylcholine receptor M3 (Homo sapiens), sequence (P20309 whole entry, looked up): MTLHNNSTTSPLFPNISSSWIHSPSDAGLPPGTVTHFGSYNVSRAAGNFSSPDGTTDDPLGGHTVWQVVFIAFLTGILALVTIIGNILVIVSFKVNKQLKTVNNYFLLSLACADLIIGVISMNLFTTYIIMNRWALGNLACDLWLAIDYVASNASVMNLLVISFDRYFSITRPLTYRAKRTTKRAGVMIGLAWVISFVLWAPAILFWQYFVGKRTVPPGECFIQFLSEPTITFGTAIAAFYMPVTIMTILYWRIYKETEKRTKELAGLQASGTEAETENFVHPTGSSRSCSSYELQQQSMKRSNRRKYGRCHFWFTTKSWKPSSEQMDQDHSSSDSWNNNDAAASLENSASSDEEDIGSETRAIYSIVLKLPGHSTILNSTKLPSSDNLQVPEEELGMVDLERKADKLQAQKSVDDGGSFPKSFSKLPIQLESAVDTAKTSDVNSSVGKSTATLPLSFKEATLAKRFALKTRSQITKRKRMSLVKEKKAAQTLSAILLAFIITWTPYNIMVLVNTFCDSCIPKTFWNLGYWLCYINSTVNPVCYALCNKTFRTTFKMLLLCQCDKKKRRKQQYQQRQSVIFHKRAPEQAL

[37] = molecular target: 5-hydroxytryptamine receptor 6 (Homo sapiens) (UniProt P50406); settings: Compound concentration 10.0 uM
[38] = molecular target: E3 ubiquitin-protein ligase TRIM33 (Homo sapiens, UniProt Q9UPN9); experiment: TRIM33(PHD,Bromo.) DiscoverX BROMOscan
[39] = molecular target: Bromodomain-containing protein 1 (Homo sapiens, UniProt O95696); experiment: BRD1 DiscoverX BROMOscan
[40] = molecular target: Beta-3 adrenergic receptor (Homo sapiens) (UniProt P13945); settings: Compound concentration 10.0 uM
[41] = molecular target: Delta-type opioid receptor (Homo sapiens) (UniProt P41143); settings: Compound concentration 10.0 uM

Muscarinic acetylcholine receptor M5 (Homo sapiens), sequence (P08912 whole entry): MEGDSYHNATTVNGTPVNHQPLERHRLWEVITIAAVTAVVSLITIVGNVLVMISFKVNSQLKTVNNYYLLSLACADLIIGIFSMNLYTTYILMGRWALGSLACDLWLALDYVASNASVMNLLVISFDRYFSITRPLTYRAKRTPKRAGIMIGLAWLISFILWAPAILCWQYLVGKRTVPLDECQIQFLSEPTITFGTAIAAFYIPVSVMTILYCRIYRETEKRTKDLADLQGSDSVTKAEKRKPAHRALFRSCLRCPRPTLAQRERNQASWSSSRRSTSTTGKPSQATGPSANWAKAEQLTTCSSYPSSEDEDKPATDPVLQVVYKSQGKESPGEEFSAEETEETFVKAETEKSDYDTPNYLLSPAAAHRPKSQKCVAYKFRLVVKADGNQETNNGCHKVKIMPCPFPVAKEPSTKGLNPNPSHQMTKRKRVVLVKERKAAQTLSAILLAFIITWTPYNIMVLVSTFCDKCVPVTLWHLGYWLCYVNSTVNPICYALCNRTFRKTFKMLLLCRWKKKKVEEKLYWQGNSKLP

COCc1nc2cnc3cc(-c4c(C)noc4C)c(OC[C@H]4CCNC4)cc3c2n1[C@H](C)c1ccccc1 [GSK778]
inhibition [1]: 24.6% | Kd [2]: 0.005 µM (active) | inhibition (Histamine H1 receptor): 0.33% | inhibition [3]: 15.3% | Kd [4]: 0.013 µM | Kd [5]: 0.31 µM | Kd [6]: 30 µM | Kd [7]: 30 µM | inhibition [8]: 4.05% | inhibition [9]: 15.3% | inhibition [10]: 4.82% | Kd [11]: 25 µM | IC50 [12]: > 25.1 µM | inhibition [13]: -5.03% | inhibition [14]: 15.7% | pIC50 [15]: 7.1 | inhibition [16]: 52.7% | IC50 [17]: 3.95 µM (not active) | inhibition [18]: 91.6% | inhibition [19]: 0.31% | inhibition [20]: -5.06% | Kd [21]: 30 µM | inhibition [22]: 34.5% | inhibition [23]: 10.7% | Kd [24]: 0.005 µM | inhibition [25]: -1.37% | inhibition [26]: 4.2% | pIC50 [27]: 7.4 | pMEC [28]: < 4 | Kd [29]: 30 µM | inhibition [30]: 31.7% | IC50 [31]: 0.075 µM (active) | IC50 (Cytochrome P450 3A4): 1 µM | inhibition (D(2) dopamine receptor): 27.7% | inhibition (Mu-type opioid receptor): 16.9% | inhibition (D(1A) dopamine receptor): 2.89% | inhibition (Rattus norvegicus): 7.75% | inhibition (D(3) dopamine receptor [32]): 62.4% | Kd [33]: 30 µM | Ki (D(3) dopamine receptor [34]; read-out: Ki): 0.486 µM | Ki (D(3) dopamine receptor [34]; read-out: pKi (converted)): 0.407 µM | Kd (Protein polybromo-1): 29 µM | inhibition [35]: 17% | inhibition [36]: -3.35% | inhibition [37]: -9.08% | Kd [38]: 30 µM | Kd [39]: 30 µM | inhibition [40]: 10.5% | inhibition [41]: 38.5%
